Earlier results, collected in US7144595B2, “Prepared foods containing triglyceride-recrystallized non-esterified phytosterols” (Brandeis University, priority 2001, dated 2006).

Test system: humans

CC[C@H](CC[C@@H](C)[C@H]1CC[C@H]2[C@@H]3CC=C4C[C@@H](O)CC[C@]4(C)[C@H]3CC[C@]12C)C(C)C [beta sitosterol]
lowering of serum cholesterol (12–18 g per day in divided doses, males with atherosclerosis (Faquhar 1956)): 15–20%

CC[C@H](CC[C@@H](C)[C@H]1CC[C@H]2[C@@H]3CC=C4C[C@@H](O)CC[C@]4(C)[C@H]3CC[C@]12C)C(C)C [sitosterol]
decrease of plasma cholesterol level (9–18 grams per day, coarse powdered form): approximately 15%
